Laboratory results: patent US7235574B2, “Pentafluorosulfanyl compounds” (Hoffmann-La Roche Inc., priority 2004, dated 2007)

Tests used:
HER2 = target: T1, HER2 (Homo sapiens, UniProt P04626); assay: Inhibition of HER2 Phosphorylation in Calu3 Tumor Cell Line; format: cell-based; conditions: Calu3 cells; for percentage of inhibition of HER2 phosphorylation compared with the reference compound: comparison with reference compound (Example 4, p. 88, WO 01/77107); for inhibition at 1 µM: Calu-3, read-out: Percent inhibition of HER2-phosphorylation
T1 construct: endogenous in cells; host or cells: Calu3 tumor cell line
Description: Inhibition of HER2 Phosphorylation in Calu3 Tumor Cell Line
2×10^5 Calu3 cells per well were plated in a 12-well plate. After 4 days cells were starved for 16 h in DMEM (Dulbecco's Modified Eagle Medium)/0.5% FCS/1% glutamine. During this time cells were incubated with […] of a compound according to this invention. Afterwards cells were lysed in lyses buffer containing 1% Triton, 10% glycerol, 1 mM EGTA, 1.5 mM MgCl2, 150 mM NaCl, 50 mM Hepes pH 7.5, 1 mM PMSF, 10 μg/mL aprotinin and […] orthovanadate. Cell lysates were analyzed on a SDS PAGE and after transfer to a nitrocellulose membrane detected with a rabbit antibody specifically recognizing the pY 1248 in HER2 (Cell Signaling). After incubation with an anti rabbit antibody coupled to POD (Peroxidase from Biorad, Munich, Germany) signals were detected by chemiluminescence (ECL, Amersham). Inhibition of HER2 phosphorylation is calculated as percentage of the DMSO treated control. This percentage is calculated according to the following formula: Inhibition in %=100−(Phosphorylated-HER2-Signal of Test Sample*100/Phosphorylated-HER2-Signal DMSO-control).

[1] = compound concentration 1 μM, 16 h incubation, pY 1248 in HER2, percentage of the DMSO treated control

T1 sequence (P04626 23-1255): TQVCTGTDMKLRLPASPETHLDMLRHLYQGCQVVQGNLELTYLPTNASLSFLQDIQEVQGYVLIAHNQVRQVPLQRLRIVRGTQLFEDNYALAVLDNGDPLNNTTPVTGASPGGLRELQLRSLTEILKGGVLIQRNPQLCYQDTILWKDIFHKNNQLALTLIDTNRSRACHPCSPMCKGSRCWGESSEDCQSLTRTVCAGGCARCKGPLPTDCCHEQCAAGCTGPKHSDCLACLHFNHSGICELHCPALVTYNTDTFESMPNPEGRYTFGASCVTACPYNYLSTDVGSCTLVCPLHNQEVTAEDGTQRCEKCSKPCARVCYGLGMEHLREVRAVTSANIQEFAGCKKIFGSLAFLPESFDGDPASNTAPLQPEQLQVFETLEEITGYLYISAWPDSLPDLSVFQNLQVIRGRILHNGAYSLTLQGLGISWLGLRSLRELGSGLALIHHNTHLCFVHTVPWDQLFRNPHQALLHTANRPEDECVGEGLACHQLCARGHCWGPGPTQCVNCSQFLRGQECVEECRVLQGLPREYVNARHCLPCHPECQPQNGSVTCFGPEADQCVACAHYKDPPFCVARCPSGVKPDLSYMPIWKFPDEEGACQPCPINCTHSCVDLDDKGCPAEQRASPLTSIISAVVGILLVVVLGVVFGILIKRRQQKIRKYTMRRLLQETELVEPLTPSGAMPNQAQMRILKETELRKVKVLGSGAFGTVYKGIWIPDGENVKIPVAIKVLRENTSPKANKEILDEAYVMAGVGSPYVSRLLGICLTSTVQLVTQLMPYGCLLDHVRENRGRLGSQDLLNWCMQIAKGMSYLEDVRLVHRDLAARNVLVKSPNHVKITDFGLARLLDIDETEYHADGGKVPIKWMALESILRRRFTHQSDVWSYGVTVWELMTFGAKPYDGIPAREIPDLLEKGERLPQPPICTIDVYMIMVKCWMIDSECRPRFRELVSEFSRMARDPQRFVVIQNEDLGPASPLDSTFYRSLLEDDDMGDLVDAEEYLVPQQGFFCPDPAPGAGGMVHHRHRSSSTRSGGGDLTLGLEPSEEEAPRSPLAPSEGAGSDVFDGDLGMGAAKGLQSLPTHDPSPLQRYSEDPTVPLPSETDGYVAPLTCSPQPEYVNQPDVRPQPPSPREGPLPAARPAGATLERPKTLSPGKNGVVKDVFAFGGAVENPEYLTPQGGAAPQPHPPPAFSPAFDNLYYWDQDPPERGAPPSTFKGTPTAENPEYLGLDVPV

Row | Compound | percentage of inhibition of HER2 phosphorylation compared with the reference compound (HER2) | inhibition at 1 µM (HER2; [1]) | Percent inhibition of HER2-phosphorylation (HER2; [1]) | melting point
1 | FS(F)(F)(F)(F)c1ccc(C=Cc2nc(COc3ccc(OCCCn4ccnn4)cc3)co2)cc1 [example 15, 1-[3-(4-{2-[2-(4-Pentafluorosulfanyl-phenyl)-vinyl]-oxazol-4-ylmethoxy}-phenoxy)-propyl]-1H-[1,2,3]triazole] | higher percentage of inhibition of phosphorylation | 97.5% |  | 
2 | FS(F)(F)(F)(F)c1ccc(C=Cc2nc(COc3ccc(C=CCCn4ccnn4)cc3)co2)cc1 [example 12, 1-[4-(4-{2-[2-(4-Pentafluorosulfanyl-phenyl)-vinyl]-oxazol-4-ylmethoxy}-phenyl)-but-3-enyl]-1H-[1,2,3]triazole] | higher percentage of inhibition of phosphorylation | 68.8% |  | 
3 | FS(F)(F)(F)(F)c1ccc(C=Cc2nc(COc3ccc(CCCCn4ccnc4)cc3)co2)cc1 [example 1, 4-[4-(4-Imidazol-1-yl-butyl)-phenoxymethyl]-2-[2-(4-pentafluorosulfanyl-phenyl)-vinyl]-oxazole] | higher percentage of inhibition of phosphorylation | 87.5% |  | 
4 | FS(F)(F)(F)(F)c1ccc(C=Cc2nc(COc3ccc(COCCn4ccnn4)cc3)co2)cc1 [example 9, 1-[2-(4-{2-[-4-(Pentafluorosulfanyl-phenyl)-vinyl]-oxazol-4-ylmethoxy}-benzyloxy)-ethyl]-1H-[1,2,3]-triazole] | higher percentage of inhibition of phosphorylation |  | 52.9% | 
5 | FS(F)(F)(F)(F)c1ccc(/C=C/c2nc(COc3ccc(CCCCn4ccnn4)cc3)co2)cc1 [example 4, 1-[4-(4-{2-[(E)-2-(-4-Pentafluorosulfanyl-phenyl)-vinyl]-oxazol-4-ylmethoxy}-phenyl)-butyl]-1H-[1,2,3]triazole] | higher percentage of inhibition of phosphorylation | 86.1% |  | 
6 | O=S(=O)(NCCn1ccnn1)c1ccc(OCc2coc(C=Cc3ccc(S(F)(F)(F)(F)F)cc3)n2)cc1 [example 14, N-(2-[1,2,3]Triazol-1-yl-ethyl)-4-{2-[2-(4-pentafluorosulfanyl-phenyl)-vinyl]-oxazol-4-ylmethoxy}-benzenesulfonamide] | higher percentage of inhibition of phosphorylation | 71.7% |  | 170 to 172 °C
7 | FS(F)(F)(F)(F)c1ccc(C=Cc2nc(CNc3ccc(CCCCn4ccnn4)cc3)co2)cc1 [example 16, [4-(4-[1,2,3]Triazol-1-yl-butyl)-phenyl]-{2-[2-(4-pentafluorosulfanyl-phenyl)-vinyl]-oxazol-4-ylmethyl}-amine] | higher percentage of inhibition of phosphorylation | 91.9% |  | 
8 | O=S(=O)(CCn1ccnn1)Cc1ccc(OCc2coc(/C=C/c3ccc(S(F)(F)(F)(F)F)cc3)n2)cc1 [example 11, 1-[2-(4-{2-[(E)-2-(4-Pentafluorosulfanyl-phenyl)-vinyl]-oxazol-4-ylmethoxy}-phenylmethanesulfonyl)-ethyl]-1H-[1,2,3]triazole] | higher percentage of inhibition of phosphorylation | 59.7% |  | 
